Test results reported in US20140323300A1, “HERBICIDAL COMPOUNDS” (SYNGENTA LIMITED, priority 2011, published 2014).

Legend:
Assay type in all cases: in vivo
[1] = system: Setaria faberi (SETFA); experiment: Pre-emergence glasshouse herbicide test; conditions: pre-emergence (sprayed after one day cultivation), 1000 g/h, evaluated after 13 days, five point scale
Protocol: (§1) Seeds of a variety of test species are sown in standard soil in pots (Alopecurus myosuroides (ALOMY), Setaria faberi (SETFA), Echinochloa crus-galli (ECHCG), Solanum nigrum (SOLNI), Amaranthus retoflexus (AMARE), Ipomoea hederacea (IPOHE)). After cultivation for one day (pre-emergence) or after 8 days cultivation (post-emergence) under controlled conditions in a glasshouse (at 24/16° C., day/night; 14 hours light; 65% humidity), the plants are sprayed with an aqueous spray solution derived from the formulation of the technical active ingredient in acetone/water (50:50) solution containing 0.5% Tween 20 (polyoxyethelyene sorbitan monolaurate, CAS RN 9005-64-5). Compounds are applied at 1000 g/h. The test plants are then grown in a glasshouse under controlled conditions in a glasshouse (at 24/16° C., day/night; 14 hours light; 65% humidity) and watered twice daily. After 13 days for pre and post-emergence, the test is evaluated for the percentage damage caused to the plant. The biological activities are shown in the following table on a five point scale (5=80-100%; 4=60-79%; 3=40-59%; 2=20-39%; 1=0-19%).

[2] = system: Ipomoea hederacea (IPOHE); experiment: Pre-emergence glasshouse herbicide test; conditions: pre-emergence (sprayed after one day cultivation), 1000 g/h, evaluated after 13 days, five point scale
Protocol: as §1

[3] = system: Amaranthus retoflexus (AMARE); experiment: Pre-emergence glasshouse herbicide test; conditions: pre-emergence (sprayed after one day cultivation), 1000 g/h, evaluated after 13 days, five point scale
Protocol: as §1

[4] = system: Echinochloa crus-galli (ECHCG); experiment: Pre-emergence glasshouse herbicide test; conditions: pre-emergence (sprayed after one day cultivation), 1000 g/h, evaluated after 13 days, five point scale
Protocol: as §1

[5] = system: Solanum nigrum (SOLNI); experiment: Pre-emergence glasshouse herbicide test; conditions: pre-emergence (sprayed after one day cultivation), 1000 g/h, evaluated after 13 days, five point scale
Protocol: as §1

[6] = system: Alopecurus myosuroides (ALOMY); experiment: Pre-emergence glasshouse herbicide test; conditions: pre-emergence (sprayed after one day cultivation), 1000 g/h, evaluated after 13 days, five point scale
Protocol: as §1

[7] = system: Setaria faberi (SETFA); experiment: Post-emergence glasshouse herbicide test; conditions: post-emergence (sprayed after 8 days cultivation), 1000 g/h, evaluated after 13 days, five point scale
Protocol: as §1

[8] = system: Ipomoea hederacea (IPOHE); experiment: Post-emergence glasshouse herbicide test; conditions: post-emergence (sprayed after 8 days cultivation), 1000 g/h, evaluated after 13 days, five point scale
Protocol: as §1

[9] = system: Amaranthus retoflexus (AMARE); experiment: Post-emergence glasshouse herbicide test; conditions: post-emergence (sprayed after 8 days cultivation), 1000 g/h, evaluated after 13 days, five point scale
Protocol: as §1

[10] = system: Echinochloa crus-galli (ECHCG); experiment: Post-emergence glasshouse herbicide test; conditions: post-emergence (sprayed after 8 days cultivation), 1000 g/h, evaluated after 13 days, five point scale
Protocol: as §1

[11] = system: Solanum nigrum (SOLNI); experiment: Post-emergence glasshouse herbicide test; conditions: post-emergence (sprayed after 8 days cultivation), 1000 g/h, evaluated after 13 days, five point scale
Protocol: as §1

[12] = system: Alopecurus myosuroides (ALOMY); experiment: Post-emergence glasshouse herbicide test; conditions: post-emergence (sprayed after 8 days cultivation), 1000 g/h, evaluated after 13 days, five point scale
Protocol: as §1

SMILES	percentage damage caused to the plant, PRE Application SETFA [1]	percentage damage caused to the plant, PRE Application IPOHE [2]	percentage damage caused to the plant, PRE Application AMARE [3]	percentage damage caused to the plant, PRE Application ECHCG [4]	percentage damage caused to the plant, PRE Application SOLNI [5]	percentage damage caused to the plant, PRE Application ALOMY [6]	percentage damage caused to the plant, POST Application SETFA [7]	percentage damage caused to the plant, POST Application IPOHE [8]	percentage damage caused to the plant, POST Application AMARE [9]	percentage damage caused to the plant, POST Application ECHCG [10]	percentage damage caused to the plant, POST Application SOLNI [11]	percentage damage caused to the plant, POST Application ALOMY [12]
Cc1nc(C(F)(F)F)ccc1-n1ncc(S(C)(=O)=O)c(O)c1=O [Compound 1.029]	4 (4=60-79%)	2 (2=20-39%)	3 (3=40-59%)	4 (4=60-79%)	4 (4=60-79%)	1 (1=0-19%)	4 (4=60-79%)	2 (2=20-39%)	3 (3=40-59%)	4 (4=60-79%)	4 (4=60-79%)	1 (1=0-19%)
CSc1cnn(-c2ccc(S(C)(=O)=O)c(C3=NOCC3)c2C)c(=O)c1O [Compound 1.018, 2-[3-(4,5-dihydroisoxazol-3-yl)-2-methyl-4-methylsulfonyl-phenyl]-4-hydroxy-5-methylsulfanyl-pyridazin-3-one]	2 (2=20-39%)	5 (5=80-100%)	5 (5=80-100%)	2 (2=20-39%)	5 (5=80-100%)	2 (2=20-39%)	2 (2=20-39%)	5 (5=80-100%)	5 (5=80-100%)	2 (2=20-39%)	5 (5=80-100%)	2 (2=20-39%)
C=C(C)c1cnn(-c2ccc(C(F)(F)F)nc2C)c(=O)c1O [Compound 1.024]	5 (5=80-100%)	5 (5=80-100%)	5 (5=80-100%)	5 (5=80-100%)	5 (5=80-100%)	5 (5=80-100%)	5 (5=80-100%)	5 (5=80-100%)	5 (5=80-100%)	5 (5=80-100%)	5 (5=80-100%)	5 (5=80-100%)
CS(=O)(=O)c1cc(C(F)(F)F)ccc1-n1ncc(Cl)c(O)c1=O [Compound 1.003]	5 (5=80-100%)	5 (5=80-100%)	5 (5=80-100%)	5 (5=80-100%)	5 (5=80-100%)	5 (5=80-100%)	5 (5=80-100%)	5 (5=80-100%)	5 (5=80-100%)	5 (5=80-100%)	5 (5=80-100%)	5 (5=80-100%)
CCc1cnn(-c2ccc(C(F)(F)F)nc2C)c(=O)c1O [Compound 1.022]	4 (4=60-79%)	4 (4=60-79%)	5 (5=80-100%)	5 (5=80-100%)	5 (5=80-100%)	4 (4=60-79%)	4 (4=60-79%)	4 (4=60-79%)	5 (5=80-100%)	5 (5=80-100%)	5 (5=80-100%)	4 (4=60-79%)
